# How the values were obtained:
# [1] = Biotransformation in vitro, microsomal stability (human); format: in vitro ADME
# Method: The metabolism of the compounds was studied in commercially available microsomal fractions derived from human and rat hepatocytes. Test compounds (0.5 μM) were incubated with microsomal fractions in the presence of NADPH during 30 min in a shaker at 37°C. Reactions were stopped at 0, 5, 10, 15, and 30 min by adding acetonitrile. After proteins precipitation, the remaining amount of the test compound in the supernatant was detected with high performance liquid chromatography tandem-mass spectrometry (HPLC-MS/MS) method using Agilent 1260 liquid chromatograph (Agilent Technologies, Santa Clara, CA, USA) and a QTRAP6500 triple quadrupole mass spectrometer with a TurboIonSpray electro-spraying module (ABSciex, Foster City, CA, USA) ([15]). Incubation was performed twice, with at least 2 measurements for each replicate (n ≥ 3). The half-life (T1/2), the clearance in vitro (CLint) and the remaining amount of substance (% of initial quantity) were calculated.
# CYP2D6 = target: T1, CYP2D6 (Homo sapiens, UniProt P10635); assay: CYP inhibition, Vivid CYP450 Screening Kit; format: in vitro ADME; settings: 0.0046 to 10 μM tested
# T1 construct: purchased Invitrogen Corporation, Carlsbad, CA, USA
# Method: (§1) Briefly, the reaction was initiated by adding NADP^+ and a substrate converted to fluorescent derivates by specific CYP isozyme. The reaction was terminated by adding 1M Tris. The fluorescence of the reaction product, which was proportional to CYP isozyme activity, was measured. […] The minimal signal was defined as the signal obtained without enzyme incubation. The inhibitory action of test compounds on the CYP isozymes was expressed in terms of median inhibitory concentration (IC50).
# CYP1A2 = target: T2, CYP1A2 (Homo sapiens, UniProt P05177); assay: CYP inhibition, Vivid CYP450 Screening Kit; format: in vitro ADME; settings: 0.0046 to 10 μM tested
# T2 construct: purchased Invitrogen Corporation, Carlsbad, CA, USA
# T2 sequence (P05177 1-516): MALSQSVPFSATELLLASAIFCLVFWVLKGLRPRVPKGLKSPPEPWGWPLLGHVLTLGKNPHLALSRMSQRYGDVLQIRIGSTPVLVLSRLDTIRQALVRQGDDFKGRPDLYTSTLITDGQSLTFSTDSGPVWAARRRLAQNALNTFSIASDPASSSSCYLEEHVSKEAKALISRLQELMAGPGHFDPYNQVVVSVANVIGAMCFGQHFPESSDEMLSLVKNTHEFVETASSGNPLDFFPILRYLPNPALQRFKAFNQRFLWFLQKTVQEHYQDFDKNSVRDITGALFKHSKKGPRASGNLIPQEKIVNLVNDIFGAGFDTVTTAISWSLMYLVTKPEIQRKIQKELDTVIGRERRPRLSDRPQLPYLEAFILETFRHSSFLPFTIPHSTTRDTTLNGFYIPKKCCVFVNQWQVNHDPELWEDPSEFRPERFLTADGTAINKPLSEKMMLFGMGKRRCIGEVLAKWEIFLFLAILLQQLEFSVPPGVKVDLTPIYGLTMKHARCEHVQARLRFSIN
# Method: as §1
# CYP3A4 = target: T3, CYP3A4 (Homo sapiens, UniProt P08684); assay: CYP inhibition, Vivid CYP450 Screening Kit; format: in vitro ADME; settings: 0.0046 to 10 μM tested
# T3 construct: purchased Invitrogen Corporation, Carlsbad, CA, USA
# Method: as §1
# CYP2C9 = target: T4, CYP2C9 (Homo sapiens, UniProt P11712); assay: CYP inhibition, Vivid CYP450 Screening Kit; format: in vitro ADME; settings: 0.0046 to 10 μM tested
# T4 construct: purchased Invitrogen Corporation, Carlsbad, CA, USA
# Method: as §1
# CYP2C19 = target: T5, CYP2C19 (Homo sapiens, UniProt P33261); assay: CYP inhibition, Vivid CYP450 Screening Kit; format: in vitro ADME; settings: 0.0046 to 10 μM tested
# T5 construct: purchased Invitrogen Corporation, Carlsbad, CA, USA
# Method: as §1
# physchem = settings: Britton-Robinson universal buffer, kinetic from dmso stock
# HepG2 cell culture = assay: Cell toxicity in vitro, Cell Titer Glo cell viability (ATP); format: cell-based, human; settings: Figure 3
# Method: Cell viability was estimated by the quantity of ATP produced by the HepG2 cell culture, derived from human liver hepatocellular carcinoma. Experiments were performed using a Cell Titer Glo Cell Viability (Promega) test system ([17]). Tubercidin, an inhibitor of various cellular metabolic processes, including RNA processing, nucleic acid synthesis, protein synthesis, and methylation of tRNA through intracellular incorporation into nucleic acids, was used as a positive control ([18]). Median inhibitory concentration (IC50) was used as a quantitative parameter to evaluate cell toxicity. To evaluate inhibition effectiveness (% Inh), the following formula was used: % Inh = [(Lpos − Lexp)/(Lpos − Lneg)] ^* 100%, where Lpos is the positive control (luminescence in cells with no compound); Lneg is the negative control (luminescence in cells containing medium but no cells); and Lexp is the luminescence in cells containing the compound at a certain concentration. IC50 values were calculated using Prism 5 and the criteria for minimization of the experimental points squares deviation from the theoretically calculated curve algorithm.
# hERG potassium channels = target: T6, hERG potassium channels (Homo sapiens, UniProt Q12809); assay: Cardiac toxicity, Predictor hERG fluorescence polarization binding
# T6 construct: purchased Invitrogen Corporation, Carlsbad, CA, USA
# Method: Cardiac toxicity was evaluated by estimating the influence of each substance on hERG potassium channels using the in vitro test system Invitrogen® PredictorTM hERG (Invitrogen Corporation, Carlsbad, CA, USA), containing Predictor hERG membrane preparations, fluorescent tracer stock solution and an assay buffer solution. Experimental procedures were conducted in accordance with the PredictorTM hERG test system's manufacturer instructions. Assays were performed in 384-well microplates. Each well contained 5 μL aliquot of each concentration of test compound, 10 μL of (2X) membrane preparation and 5 μL of working tracer solution. The cumulative reaction volume was 20 μl with 1% of DMSO ([19]). All procedures were performed at 4 replicates for each concentration. The plate was allowed to incubate at room temperature for at least 1 h prior to fluorescence polarization measurements performed with a microplate reader Infinite M1000 PRO (Tecan).
# [2] = tested on: rats with streptozotocin-nicotinamide (STZ-NA) induced T2D; assay: Hypoglycemic activity after single oral administration in T2D rat model; format: in vivo; settings: single oral 1 mg/kg, fasted STZ-NA T2D rats, over a 3 h period
# Method: Procedures were performed in 40 female Wistar rats weighing 250–280 g. Streptozotocin-nicotinamide-induced rat model of T2D was used ([24], [25]). Briefly, streptozotocin (Sigma, St. Louis, MO, USA) was administered i.p. to overnight fasted rats (65 mg/kg in 100 mmol/l citrate buffer, Ph 4.5). Nicotinamide (Sigma, St. Louis, MO, USA) (230 mg/kg) dissolved in saline was administered i.p. 15 min before streptozotocin. STZ-NA T2D had been confirmed 72 h after in rats with blood glucose levels in a range 9–14 mmol/l measured in fasting (6 h) conditions. […] […] For OGTT rats received an oral dose of […] glucose dissolved in saline; blood glucose levels were monitored every 30 min for 2 h after glucose administration. Sitagliptin dose was chosen in accordance with published data ([26]).
# T6 sequence (Q12809 whole entry): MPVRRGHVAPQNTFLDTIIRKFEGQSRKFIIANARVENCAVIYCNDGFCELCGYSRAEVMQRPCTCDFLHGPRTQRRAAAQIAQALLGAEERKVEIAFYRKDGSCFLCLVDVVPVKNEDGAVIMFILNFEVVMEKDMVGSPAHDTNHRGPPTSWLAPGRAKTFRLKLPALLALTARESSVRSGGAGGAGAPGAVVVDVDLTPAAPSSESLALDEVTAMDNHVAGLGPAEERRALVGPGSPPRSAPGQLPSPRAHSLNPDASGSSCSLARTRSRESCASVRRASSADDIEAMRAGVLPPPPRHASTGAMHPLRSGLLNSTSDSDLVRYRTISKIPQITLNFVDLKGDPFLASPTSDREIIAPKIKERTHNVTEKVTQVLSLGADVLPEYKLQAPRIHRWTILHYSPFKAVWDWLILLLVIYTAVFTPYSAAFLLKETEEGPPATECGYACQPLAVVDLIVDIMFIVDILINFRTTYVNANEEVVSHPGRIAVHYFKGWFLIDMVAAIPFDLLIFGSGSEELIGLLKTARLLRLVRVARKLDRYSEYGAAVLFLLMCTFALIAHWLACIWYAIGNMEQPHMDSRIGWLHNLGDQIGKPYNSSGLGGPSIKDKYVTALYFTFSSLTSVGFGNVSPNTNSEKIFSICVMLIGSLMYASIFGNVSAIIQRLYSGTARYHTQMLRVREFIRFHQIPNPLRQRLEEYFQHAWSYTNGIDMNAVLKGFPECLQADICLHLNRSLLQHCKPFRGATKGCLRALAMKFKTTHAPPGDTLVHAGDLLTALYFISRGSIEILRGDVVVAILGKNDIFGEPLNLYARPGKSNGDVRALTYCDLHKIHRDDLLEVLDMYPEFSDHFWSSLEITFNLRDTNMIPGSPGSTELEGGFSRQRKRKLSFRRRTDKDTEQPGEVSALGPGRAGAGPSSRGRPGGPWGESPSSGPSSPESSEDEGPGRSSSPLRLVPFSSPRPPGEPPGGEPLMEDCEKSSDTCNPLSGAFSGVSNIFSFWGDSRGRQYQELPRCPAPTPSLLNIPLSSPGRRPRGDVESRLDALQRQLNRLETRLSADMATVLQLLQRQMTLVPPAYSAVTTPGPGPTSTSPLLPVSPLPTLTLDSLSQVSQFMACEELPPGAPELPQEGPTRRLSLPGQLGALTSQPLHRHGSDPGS
# T4 sequence (P11712 whole entry): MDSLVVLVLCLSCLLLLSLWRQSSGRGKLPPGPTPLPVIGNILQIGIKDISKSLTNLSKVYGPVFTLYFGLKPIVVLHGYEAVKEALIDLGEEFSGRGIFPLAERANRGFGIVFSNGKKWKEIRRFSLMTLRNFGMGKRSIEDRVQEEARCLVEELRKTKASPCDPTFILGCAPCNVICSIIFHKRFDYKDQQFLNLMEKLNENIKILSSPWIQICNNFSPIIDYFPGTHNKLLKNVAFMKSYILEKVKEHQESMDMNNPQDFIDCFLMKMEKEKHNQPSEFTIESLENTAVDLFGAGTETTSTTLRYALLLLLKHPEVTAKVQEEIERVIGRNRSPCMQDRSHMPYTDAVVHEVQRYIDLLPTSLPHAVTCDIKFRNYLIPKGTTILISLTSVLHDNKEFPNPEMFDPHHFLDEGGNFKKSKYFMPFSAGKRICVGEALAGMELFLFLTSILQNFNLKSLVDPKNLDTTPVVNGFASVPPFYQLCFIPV
# T5 sequence (P33261 whole entry): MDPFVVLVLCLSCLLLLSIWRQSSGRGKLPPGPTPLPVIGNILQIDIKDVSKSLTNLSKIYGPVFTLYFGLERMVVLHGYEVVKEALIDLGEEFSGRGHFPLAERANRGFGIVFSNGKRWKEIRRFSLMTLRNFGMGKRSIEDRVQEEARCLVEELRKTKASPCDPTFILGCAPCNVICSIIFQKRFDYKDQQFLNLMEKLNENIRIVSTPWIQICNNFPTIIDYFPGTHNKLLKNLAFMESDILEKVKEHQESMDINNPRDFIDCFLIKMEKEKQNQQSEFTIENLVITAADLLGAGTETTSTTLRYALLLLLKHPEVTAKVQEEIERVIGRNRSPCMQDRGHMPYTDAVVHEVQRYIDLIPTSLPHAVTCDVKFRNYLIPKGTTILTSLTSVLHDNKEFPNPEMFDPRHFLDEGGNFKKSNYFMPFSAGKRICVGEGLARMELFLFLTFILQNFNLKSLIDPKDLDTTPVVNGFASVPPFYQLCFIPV
# T1 sequence (P10635 whole entry): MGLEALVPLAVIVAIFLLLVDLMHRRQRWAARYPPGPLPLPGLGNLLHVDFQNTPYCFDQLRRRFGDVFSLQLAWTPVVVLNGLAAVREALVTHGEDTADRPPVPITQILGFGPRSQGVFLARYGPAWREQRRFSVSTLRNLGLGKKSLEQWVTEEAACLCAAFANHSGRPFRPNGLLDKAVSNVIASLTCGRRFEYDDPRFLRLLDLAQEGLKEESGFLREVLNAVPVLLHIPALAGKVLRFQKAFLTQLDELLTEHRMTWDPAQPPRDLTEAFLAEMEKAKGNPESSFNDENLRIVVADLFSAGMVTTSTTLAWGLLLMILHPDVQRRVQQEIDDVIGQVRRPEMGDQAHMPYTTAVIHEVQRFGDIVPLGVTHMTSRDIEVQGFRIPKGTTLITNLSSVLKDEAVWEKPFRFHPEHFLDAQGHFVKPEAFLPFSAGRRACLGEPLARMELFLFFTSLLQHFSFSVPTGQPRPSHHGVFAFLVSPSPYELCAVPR
# T3 sequence (P08684 whole entry): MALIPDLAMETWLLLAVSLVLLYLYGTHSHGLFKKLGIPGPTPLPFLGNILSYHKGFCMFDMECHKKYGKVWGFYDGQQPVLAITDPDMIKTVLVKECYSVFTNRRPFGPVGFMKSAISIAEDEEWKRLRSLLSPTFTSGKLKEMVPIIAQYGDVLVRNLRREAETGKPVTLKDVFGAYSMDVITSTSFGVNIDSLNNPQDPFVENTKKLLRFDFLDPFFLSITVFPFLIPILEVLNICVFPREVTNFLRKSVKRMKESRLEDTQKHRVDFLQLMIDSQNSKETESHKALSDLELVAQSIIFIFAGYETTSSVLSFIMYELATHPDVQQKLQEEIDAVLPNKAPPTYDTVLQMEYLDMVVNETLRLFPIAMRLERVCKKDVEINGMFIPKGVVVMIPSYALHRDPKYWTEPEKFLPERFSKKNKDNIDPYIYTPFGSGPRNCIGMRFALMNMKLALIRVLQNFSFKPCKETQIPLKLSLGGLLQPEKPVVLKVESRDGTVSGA
structure (smiles),measurement,setting,value
O=S1(=O)COc2cc(-c3ccc(OCC4CCN(c5ncc(Cl)cn5)CC4)c(F)c3)ccc21 [ZB-16],ER,[1]; Human microsomal fraction,0.76
same,CLh,"[1]; Human microsomal fraction, in mL/min/kg (unit assumed)",16.43
same,microsomal CLint at 0.5 μM,[1]; liver microsomal fraction,65.2 µL/min/mg
same,half-life at 0.5 μM,"[1]; liver microsomal fraction, 0.5 μM, NADPH, read-out: t1/2, min",42.5 min
same,IC50,CYP2D6,> 10 µM
same,IC50,CYP1A2,> 10 µM
same,IC50,CYP3A4,> 10 µM
same,IC50,CYP2C9,> 10 µM
same,IC50,CYP2C19,> 10 µM
same,solubility,"physchem; pH 2, aqueous buffer",52 µM
same,solubility,"physchem; pH 4, aqueous buffer",< 3 µM
same,solubility,"physchem; pH 7, aqueous buffer",4 µM
same,effect on HepG2 cell culture viability,HepG2 cell culture,no effect
same,Average polarization mP (n = 4),hERG potassium channels; 1 μM,264 mP
same,Unbound hERG %,hERG potassium channels; 1 μM,89%
same,Average polarization mP (n = 4),hERG potassium channels; 10 μM,244 mP
same,Unbound hERG %,hERG potassium channels; 10 μM,77%
same,decrease of blood glucose levels,[2],24%

# From publication PMC6156125, “Chemistry and Hypoglycemic Activity of GPR119 Agonist ZB-16” (Frontiers in Endocrinology, 2018)
